Source: patent US10150760B2, “Compounds for use in preparing heterocyclic triazole agonists of the APJ receptor” (AMGEN INC., priority 2016, dated 2018)

What follows are compounds tested against human APJ receptor (Homo sapiens (Human), UniProt P35414) (assay: [35S]GTPγS binding assay on membranes from CHO cells stably expressing human APJ receptor). Settings: read-out: Activity hAPJ SPA EC50 IP.
Format: biochemical
Procedure, shortened: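 Membranes from CHO cells stably expressing human APJ incubated with ligand, 0.2 nM [35S]GTPγS and WGA SPA beads in HEPES pH 7.5 with 5 mM MgCl2, 200 mM NaCl, 3 μM GDP, 90 min at RT. Nonspecific binding defined with 100 μM GTPγS; EC50 by non-linear regression.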

human APJ receptor, sequence (P35414 whole entry): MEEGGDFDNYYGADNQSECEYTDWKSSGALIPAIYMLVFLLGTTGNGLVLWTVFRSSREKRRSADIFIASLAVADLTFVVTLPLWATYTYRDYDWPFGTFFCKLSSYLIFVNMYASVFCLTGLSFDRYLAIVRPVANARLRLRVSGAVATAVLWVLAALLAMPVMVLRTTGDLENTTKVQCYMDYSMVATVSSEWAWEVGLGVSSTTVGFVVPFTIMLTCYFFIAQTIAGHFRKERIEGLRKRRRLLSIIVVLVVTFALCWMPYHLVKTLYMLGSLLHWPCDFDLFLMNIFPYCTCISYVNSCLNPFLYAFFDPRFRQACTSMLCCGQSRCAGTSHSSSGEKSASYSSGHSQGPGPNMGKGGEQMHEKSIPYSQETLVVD

Row | Compound | EC50 [µM]
1 | COc1cccc(OC)c1-n1c(NS(=O)(=O)[C@H](C)[C@H](OC(C)C)c2cn3ccccc3n2)nnc1[C@H]1COCCO1 (single isomer, unassigned) [Example 266.0, (1R,2R)—N-(4-(2,6-dimethoxyphenyl)-5-((S)-1,4-dioxan-2-yl)-4H-1,2,4-triazol-3-yl)-1-(imidazo[1,2-a]pyridin-2-yl)-1-isopropoxypropane-2-sulfonamide or (1S,2S)—N-(4-(2,6-dimethoxyphenyl)-5-((S)-1,4-dioxan-2-yl)-4H-1,2,4-triazol-3-yl)-1-(imidazo[1,2-a]pyridin-2-yl)-1-isopropoxypropane-2-sulfonamide] | 0.15
2 | COc1cccc(OC)c1-n1c(NS(=O)(=O)[C@@H](C)[C@H](C)c2ccc(Cl)cn2)nnc1[C@@H]1COCCO1 (single isomer, unassigned) [Example 267.0, (2S,3R)-3-(5-chloropyridin-2-yl)-N-(4-(2,6-dimethoxyphenyl)-5-((R)-1,4-dioxan-2-yl)-4H-1,2,4-triazol-3-yl)butane-2-sulfonamide or (2S,3R)-3-(5-chloropyridin-2-yl)-N-(4-(2,6-dimethoxyphenyl)-5-((S)-1,4-dioxan-2-yl)-4H-1,2,4-triazol-3-yl)butane-2-sulfonamide] | 0.0021
3 | COc1cccc(OC)c1-n1c(NS(=O)(=O)[C@@H](C)[C@H](C)c2ccc(Cl)cn2)nnc1[C@@H]1COCCO1 (single isomer, unassigned) [Example 268.0, (2S,3R)-3-(5-chloropyridin-2-yl)-N-(4-(2,6-dimethoxyphenyl)-5-((R)-1,4-dioxan-2-yl)-4H-1,2,4-triazol-3-yl)butane-2-sulfonamide or (2S,3R)-3-(5-chloropyridin-2-yl)-N-(4-(2,6-dimethoxyphenyl)-5-((S)-1,4-dioxan-2-yl)-4H-1,2,4-triazol-3-yl)butane-2-sulfonamide] | 0.0019
4 | COc1cccc(OC)c1-n1c(NS(=O)(=O)[C@@H](C)[C@H](C)c2ncc(C)cn2)nnc1[C@@H]1CCCN(C)C1 (single isomer, unassigned) [Example 269.0, (2S,3R)-N-(4-(2,6-dimethoxyphenyl)-5-((R)-1-methylpiperidin-3-yl)-4H-1,2,4-triazol-3-yl)-3-(5-methylpyrimidin-2-yl)butane-2-sulfonamide or (2S,3R)-N-(4-(2,6-dimethoxyphenyl)-5-((S)-1-methylpiperidin-3-yl)-4H-1,2,4-triazol-3-yl)-3-(5-methylpyrimidin-2-yl)butane-2-sulfonamide] | 0.42
5 | COc1cccc(OC)c1-n1c(NS(=O)(=O)[C@@H](C)[C@H](C)c2ncc(C)cn2)nnc1[C@@H]1CCCN(C)C1 (single isomer, unassigned) [Example 270.0, (2S,3R)-N-(4-(2,6-dimethoxyphenyl)-5-((R)-1-methylpiperidin-3-yl)-4H-1,2,4-triazol-3-yl)-3-(5-methylpyrimidin-2-yl)butane-2-sulfonamide or (2S,3R)-N-(4-(2,6-dimethoxyphenyl)-5-((S)-1-methylpiperidin-3-yl)-4H-1,2,4-triazol-3-yl)-3-(5-methylpyrimidin-2-yl)butane-2-sulfonamide] | 0.41
6 | CO[C@H](c1ncc(Cl)cn1)[C@H](C)S(=O)(=O)Nc1nnc([C@@H]2COCCO2)n1C1(C)CC1 (single isomer, unassigned) [Example 271.0, (1R,2S)-N-(5-((R)-1,4-dioxan-2-yl)-4-(1-methylcyclopropyl)-4H-1,2,4-triazol-3-yl)-1-(5-chloropyrimidin-2-yl)-1-methoxypropane-2-sulfonamide or (1R,2S)-N-(5-((S)-1,4-dioxan-2-yl)-4-(1-methylcyclopropyl)-4H-1,2,4-triazol-3-yl)-1-(5-chloropyrimidin-2-yl)-1-methoxypropane-2-sulfonamide] | 0.14
7 | CO[C@H](c1ncc(Cl)cn1)[C@H](C)S(=O)(=O)Nc1nnc([C@@H]2COCCO2)n1C1(C)CC1 (single isomer, unassigned) [Example 272.0, (1R,2S)-N-(5-((R)-1,4-dioxan-2-yl)-4-(1-methylcyclopropyl)-4H-1,2,4-triazol-3-yl)-1-(5-chloropyrimidin-2-yl)-1-methoxypropane-2-sulfonamide or (1R,2S)-N-(5-((S)-1,4-dioxan-2-yl)-4-(1-methylcyclopropyl)-4H-1,2,4-triazol-3-yl)-1-(5-chloropyrimidin-2-yl)-1-methoxypropane-2-sulfonamide] | 1.01
8 | COc1cccc(OC)c1-n1c(NS(=O)(=O)[C@@H](C)[C@H](C)c2ncc(F)cn2)nnc1[C@H]1CCOC1 (single isomer, unassigned) [Example 273.0, (2S,3R)-N-(4-(2,6-dimethoxyphenyl)-5-((R)-tetrahydrofuran-3-yl)-4H-1,2,4-triazol-3-yl)-3-(5-fluoropyrimidin-2-yl)butane-2-sulfonamide or (2S,3R)-N-(4-(2,6-dimethoxyphenyl)-5-((S)-tetrahydrofuran-3-yl)-4H-1,2,4-triazol-3-yl)-3-(5-fluoropyrimidin-2-yl)butane-2-sulfonamide] | 0.029
9 | COc1cccc(OC)c1-n1c(NS(=O)(=O)[C@@H](C)[C@H](C)c2ncc(F)cn2)nnc1[C@H]1CCOC1 (single isomer, unassigned) [Example 274.0, (2S,3R)-N-(4-(2,6-dimethoxyphenyl)-5-((R)-tetrahydrofuran-3-yl)-4H-1,2,4-triazol-3-yl)-3-(5-fluoropyrimidin-2-yl)butane-2-sulfonamide or (2S,3R)-N-(4-(2,6-dimethoxyphenyl)-5-((S)-tetrahydrofuran-3-yl)-4H-1,2,4-triazol-3-yl)-3-(5-fluoropyrimidin-2-yl)butane-2-sulfonamide] | 0.078
10 | COc1cccc(OC)c1-n1c(NS(=O)(=O)[C@@H](C)[C@H](C)c2ncc(F)cn2)nnc1[C@@H]1COCCO1 (single isomer, unassigned) [Example 276.0, (2S,3R)-N-(4-(2,6-dimethoxyphenyl)-5-((R)-1,4-dioxan-2-yl)-4H-1,2,4-triazol-3-yl)-3-(5-fluoropyrimidin-2-yl)butane-2-sulfonamide or (2S,3R)-N-(4-(2,6-dimethoxyphenyl)-5-((S)-1,4-dioxan-2-yl)-4H-1,2,4-triazol-3-yl)-3-(5-fluoropyrimidin-2-yl)butane-2-sulfonamide] | 0.033
11 | COc1ncnc(OC)c1-n1c(NS(=O)(=O)[C@@H](C)[C@H](C)c2ncc(F)cn2)nnc1[C@@H]1COCCO1 (single isomer, unassigned) [Example 277.0, (2S,3R)-N-(4-(4,6-dimethoxypyrimidin-5-yl)-5-((R)-1,4-dioxan-2-yl)-4H-1,2,4-triazol-3-yl)-3-(5-fluoropyrimidin-2-yl)butane-2-sulfonamide or (2S,3R)-N-(4-(4,6-dimethoxypyrimidin-5-yl)-5-((S)-1,4-dioxan-2-yl)-4H-1,2,4-triazol-3-yl)-3-(5-fluoropyrimidin-2-yl)butane-2-sulfonamide] | 0.023
12 | COc1ncnc(OC)c1-n1c(NS(=O)(=O)[C@@H](C)[C@H](C)c2ncc(F)cn2)nnc1[C@@H]1COCCO1 (single isomer, unassigned) [Example 278.0, (2S,3R)-N-(4-(4,6-dimethoxypyrimidin-5-yl)-5-((R)-1,4-dioxan-2-yl)-4H-1,2,4-triazol-3-yl)-3-(5-fluoropyrimidin-2-yl)butane-2-sulfonamide or (2S,3R)-N-(4-(4,6-dimethoxypyrimidin-5-yl)-5-((S)-1,4-dioxan-2-yl)-4H-1,2,4-triazol-3-yl)-3-(5-fluoropyrimidin-2-yl)butane-2-sulfonamide] | 0.51
13 | COc1ncnc(OC)c1-n1c(NS(=O)(=O)[C@@H](C)[C@@H](OC(C)C)c2ncc(Cl)cn2)nnc1[C@H]1CCC(C)(C)O1 (single isomer, unassigned) [Example 279.0, (1S,2S)-1-(5-chloropyrimidin-2-yl)-N-(4-(4,6-dimethoxypyrimidin-5-yl)-5-((R)-5,5-dimethyltetrahydrofuran-2-yl)-4H-1,2,4-triazol-3-yl)-1-isopropoxypropane-2-sulfonamide or (1S,2S)-1-(5-chloropyrimidin-2-yl)-N-(4-(4,6-dimethoxypyrimidin-5-yl)-5-((S)-5,5-dimethyltetrahydrofuran-2-yl)-4H-1,2,4-triazol-3-yl)-1-isopropoxypropane-2-sulfonamide] | 0.00068
14 | COc1ncnc(OC)c1-n1c(NS(=O)(=O)[C@@H](C)[C@@H](OC(C)C)c2ncc(Cl)cn2)nnc1[C@H]1CCC(C)(C)O1 (single isomer, unassigned) [Example 280.0, (1S,2S)-1-(5-chloropyrimidin-2-yl)-N-(4-(4,6-dimethoxypyrimidin-5-yl)-5-((R)-5,5-dimethyltetrahydrofuran-2-yl)-4H-1,2,4-triazol-3-yl)-1-isopropoxypropane-2-sulfonamide or (1S,2S)-1-(5-chloropyrimidin-2-yl)-N-(4-(4,6-dimethoxypyrimidin-5-yl)-5-((S)-5,5-dimethyltetrahydrofuran-2-yl)-4H-1,2,4-triazol-3-yl)-1-isopropoxypropane-2-sulfonamide] | 0.0075
15 | COc1cccc(OC)c1-n1c(NS(=O)(=O)[C@@H](C)[C@@H](OC(C)C)c2ncc(Cl)cn2)nnc1[C@H]1CCOC1 (single isomer, unassigned) [Example 281.0, (1S,2S)-1-(5-chloropyrimidin-2-yl)-N-(4-(2,6-dimethoxyphenyl)-5-((R)-tetrahydrofuran-3-yl)-4H-1,2,4-triazol-3-yl)-1-isopropoxypropane-2-sulfonamide or (1S,25)-1-(5-chloropyrimidin-2-yl)-N-(4-(2,6-dimethoxyphenyl)-5-((S)-tetrahydrofuran-3-yl)-4H-1,2,4-triazol-3-yl)-1-isopropoxypropane-2-sulfonamide] | 0.00011
